Data taken from PMC11091220, “Metabolism-driven in vitro/in vivo disconnect of an oral ERɑ VHL-PROTAC” (Communications Biology, 2024).
“And” between values parts separate entries of the source, which are not always exact repeats. Identical values can stand only once.

Experiments:
Assay type in all cases: cell-based
ERα [1] = biological target: T1, ERα (Homo sapiens, UniProt P03372); assay: SILAC pulse-chase and mass spectrometry, ERα turnover in MCF7 cells; conditions: 1 µM
T1 construct: endogenous in cells; host or cells: MCF7 (also MCF7 engineered to express Cas9)
T1 sequence (P03372 1-595): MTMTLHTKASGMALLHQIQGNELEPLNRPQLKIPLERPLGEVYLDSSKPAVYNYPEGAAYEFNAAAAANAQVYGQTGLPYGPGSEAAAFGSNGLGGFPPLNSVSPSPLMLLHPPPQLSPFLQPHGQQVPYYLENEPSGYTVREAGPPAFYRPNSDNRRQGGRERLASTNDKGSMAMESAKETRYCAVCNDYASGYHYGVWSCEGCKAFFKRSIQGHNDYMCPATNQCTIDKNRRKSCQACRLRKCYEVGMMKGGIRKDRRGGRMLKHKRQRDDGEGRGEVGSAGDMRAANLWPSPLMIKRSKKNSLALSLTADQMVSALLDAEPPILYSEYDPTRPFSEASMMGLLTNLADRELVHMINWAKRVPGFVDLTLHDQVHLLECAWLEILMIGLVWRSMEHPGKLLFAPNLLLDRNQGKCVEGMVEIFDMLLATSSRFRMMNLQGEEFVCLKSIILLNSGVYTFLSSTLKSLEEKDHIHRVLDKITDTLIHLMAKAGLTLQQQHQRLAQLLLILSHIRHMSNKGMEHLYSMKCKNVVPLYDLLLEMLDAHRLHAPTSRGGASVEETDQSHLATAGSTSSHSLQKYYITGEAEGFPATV
Procedure: MCF7 cells were grown for a minimum of 2 passages in SILAC media (Pierce, Thermo Scientific) containing ^13C6^15N4 arginine and ^13C6 lysine. The extent of stable isotope incorporation was determined by mass spectrometry. For the assay, cells were plated at 1.2 x 10^6 cells/well into 6-well TC-treated plates in media containing 5% double charcoal stripped FBS^13,C6^15N4 arginine and ^13C6^15N2 lysine for 24 hours. At time 0, the media containing isotopically heavy arginine and lysine was replaced with media containing unlabelled equivalents plus either AZ’6421, fulvestrant or DMSO control. […] Equal concentrations of timecourse lysates were mixed with an internal standard lysate derived from ^[…] lysine labelled MCF7 cells. ER protein was immunoprecipitated overnight at 4 °C with an ER antibody (Rabbit clone SP1, Thermo Scientific) and immobilised onto a U-bottomed Nunc MaxiSorp plate (Thermo Scientific). Wells were sequentially washed with each of the following; RIPA buffer, PBS and water. Samples were digested by addition of 30 μL well sequencing grade trypsin (Promega) in 50 mM ammonium bicarbonate at 37 °C for a minimum of 16 hours. The resultant peptide samples were acidified and analysed by selected reaction monitoring (SRM) mass spectrometry. Protein half-life was determined using the one-phase exponential decay function in GraphPad PRISM where Y = (Y0 - Plateau)*exp(-K*X) + Plateau.

ERα [2] = biological target: T1, ERα; assay: Hypoxia studies, ERα degradation in MCF7 cells; conditions: for reduction in ERα levels: MCF7, 48 h
Procedure: MCF7 cells were seeded into 12-well tissue culture-treated plates at 0.5x10^6 cells/well in phenol red-free RPMI media containing 5% (volume/volume [v/v]) charcoal-stripped FBS (F6765, Sigma) and left to adhere overnight. The hypoxia-treated plates were transferred to a Thermo Heracell 150 Tri-gas Incubator set at 2% O2 and allowed to equilibrate to the lower oxygen level overnight. Cells were treated with compound or 0.1% DMSO vehicle control for 48 hours prior to being lysed in Pierce RIPA buffer (Thermo Scientific), supplemented with protease and phosphatase inhibitors. Lysis was carried out immediately after removal from the Tri-gas incubator to prevent the rapid degradation of HIF1α on re-exposure to the higher oxygen levels. Protein expression was determined by standard western blotting procedures as described above.

CAMA1 cells = assay: Cell proliferation assay (Sytox Green), CAMA1; conditions: Homo sapiens, CAMA-1, 144 h; CAMA1, 6 days; read-out: growth inhibition IC50
Procedure: Cell proliferation was assessed by measuring live cell numbers using the Sytox Green assay. MCF7 and CAMA1 cells were seeded in 96-well clear-bottom black microplates (Costar) at 4x10^3 and 8x10^3 cells per well, respectively, based on the doubling time of each cell line. Plates were incubated at 37 °C, 5% CO2 for 24 hours prior to being treated with DMSO, AZ’6421 or fulvestrant in a 10-point concentration range, with a final DMSO concentration of 0.1%. A single plate was left untreated, designated a Day 0 plate. The number of live cells was determined at Day 0 and Day 7 using the Sytox green assay. Briefly, 5 mM Sytox green nucleic acid dye (Invitrogen) was diluted 1:2500 in 500 mM tris-buffered saline (TBS) with ethylenediaminetetraacetic acid (EDTA) and 7 μL was added per well. Plates were then incubated in the dark at room temperature for 1 hour and the number of green cells in each well (dead cells) was measured using an Acumen Explorer high-throughput cell imager (TTP Labtech). Next, 14 μL of 0.25% w/v Saponin in TBS/EDTA solution was added overnight to permeabilize the cells, permitting a total cell count. The number of live cells was calculated by subtracting the dead cell count from the total cell count. The data obtained were then used to perform curve fitting analysis using GraphPad Prism. Average cell counts from the Day 0 plate were used to determine 0% cell growth. […]

ERα [3] = biological target: T1, ERα; assay: Western blot analysis of ERα in MCF7 cells (dose response, MG132, VHL ligand and cpd 8 competition); conditions: Figure 6f, read-out: ERa % of control

## Cc1ncsc1-c1ccc(CNC(=O)[C@@H]2C[C@@H](O)CN2C(=O)[C@@H](NC(=O)COCCCOCCCOc2cc(F)c([C@@H]3c4[nH]c5ccccc5c4C[C@@H](C)N3CC(C)(C)F)c(F)c2)C(C)(C)C)cc1 [Compound 5]
ERα [1]; Time 0, MCF7
  % heavy (ERα heavy peptide): 100.0%
ERα [1]; Time 0.5, listed as AZ'6421
  % heavy (ERα heavy peptide): 51.8% and 84.4% and 43.4%
ERα [1]; Time 1, listed as AZ'6421
  % heavy (ERα heavy peptide): 24.8% and 28.9% and 24.0%
ERα [1]; Time 2, listed as AZ'6421
  % heavy (ERα heavy peptide): 13.8% and 13.6% and 9.7%
ERα [1]; Time 4, listed as AZ'6421
  % heavy (ERα heavy peptide): 5.2% and 6.5% and 4.4%
ERα [1]; Time 7, listed as AZ'6421
  % heavy (ERα heavy peptide): 3.1% and 4.5% and 3.3%
ERα [1]; Time 24, listed as AZ'6421
  % heavy (ERα heavy peptide): 3.2% and 3.4% and 2.7%
ERα [1]; Time 48, listed as AZ'6421
  % heavy (ERα heavy peptide): 3.5% and 3.4% and 2.6%
ERα [2]; 10 nM, hypoxic (2% O2)
  reduction in ERα levels: 99%
ERα [2]; 10 nM, normoxic
  reduction in ERα levels: 98%
ERα [2]; Hypoxic, 0.1 nM
  ERa levels (% of vehicle control): 45.941%
ERα [2]; Hypoxic, 1 nM
  ERa levels (% of vehicle control): 5.353%
ERα [2]; Hypoxic, 10 nM
  ERa levels (% of vehicle control): 0.903%
ERα [2]; Hypoxic, 100 nM
  ERa levels (% of vehicle control): 0.157%
ERα [2]; Normoxic, 0.1 nM
  ERa levels (% of vehicle control): 31.081%
ERα [2]; Normoxic, 1 nM
  ERa levels (% of vehicle control): 8.315%
ERα [2]; Normoxic, 10 nM
  ERa levels (% of vehicle control): 1.645%
ERα [2]; Normoxic, 100 nM
  ERa levels (% of vehicle control): 0.645%
CAMA1 cells
  IC50: 0.2 nM

## C[C@@H]1Cc2c([nH]c3ccccc23)[C@@H](c2c(F)cc(OCCC(=O)O)cc2F)N1CC(C)(C)F [Compound 8]
ERα [3]; 1 nM
  remaining activity at 0.001 µM: 51.3%
ERα [3]; 10 nM
  remaining activity at 0.01 µM: 51.6%
ERα [3]; 30 nM
  remaining activity at 0.03 µM: 47.7%
ERα [3]; 100 nM
  remaining activity at 0.1 µM: 29.2%
ERα [3]; 300 nM
  remaining activity at 0.3 µM: 46.3%
ERα [3]; 1000 nM
  remaining activity at 1 µM: 42%
